Test results as given in US5583117A (priority 1993, dated 1996).
Values belong to the compound of their own block, whether it stands above or below them.

Key:
[1] = cited from earlier work
[2] = tested on: central nervous system pathologies; settings: brain edema, cranial trauma, cerebral ischemia, chronic cerebrovascular diseases, Parkinson's disease; cited from earlier work
[3] = Bioavailability of uridine and acyl uridine derivatives in rats (plasma by HPLC); format: in vivo, male F344 rats; settings: rat, intubation into stomach, 0.28 moles/kg (printed), for at least four hours following ingestion
Excerpt: Silastic catheters were implanted into the right jugular veins of anesthetized male F344 rats (Retired Breeders, 450-500 grams). After three days of recovery from surgery, the animals were placed in deep cylindrical cages, and their catheters were extended with a lengthened polyvinyl tubing, so that blood samples would be withdrawn without disturbing the rats. Basal blood samples were taken and the animals were divided into four groups, each containing four rats.

[4] = in vivo, po
Method: Blood samples (0.5 ml) were withdrawn at intervals of 1, 2, 3, and 4 hours after ingestion of the compound and were processed for subsequent determination of plasma uridine content by HPLC. On a separate day, the same procedure was carried out, except that an equal molar dose (18 mg/kg--1.3 grams in a 70 kilogram subject) of uridine was ingested instead of the acyl derivative.

[5] = tested on: adrenalin-induced myocardial necrosis; settings: cited from earlier work; for mortality and myocardial function: ECG readings, biochemical findings, relative heart weight
isolated dog heart = settings: cited from earlier work
isolated rat heart = settings: cited from earlier work
brain = settings: in vivo; cited from earlier work
[6] = tested on: pyrimidine nucleoside phosphorylases; settings: rat, in vivo; cited from earlier work
skeletal muscles = settings: rat, in vivo; cited from earlier work
atrial tissue = settings: in vitro; cited from earlier work
[7] = tested on: tyrosine-alpha-ketoglutarate; settings: alone or in various combinations; cited from earlier work
adipose tissue = settings: cited from earlier work
[8] = tested on: isolated rat diaphragm muscle; settings: cited from earlier work
myocardial glycogen = settings: cited from earlier work; for myocardial glycogen: intravenous infusion
liver function = settings: in vivo; cited from earlier work
[9] = tested on: adrenalin-induced myocardial dystrophy; settings: rat, in vivo; cited from earlier work
[10] = tested on: skeletal and cardiac muscle; settings: cited from earlier work
hepatocytes = settings: cited from earlier work
[11] = tested on: isolated, perfused rat liver; settings: in a single passage; cited from earlier work
isolated rat hearts [12] = settings: reperfusion after low-flow ischemia; cited from earlier work
heart = settings: cited from earlier work
[13] = cited from earlier work; remark: listed apart in the source
myocardium = settings: pretreatment; 2 hours after aortic stenosis; cited from earlier work
isolated rabbit hearts = settings: cited from earlier work
isolated rat hearts [14] = settings: cited from earlier work
[15] = tested on: experimentally-induced seizures; settings: intraperitoneal injection; cited from earlier work

Compound: C[N+](C)(C)CCOP(=O)(O)OP(=O)([O-])OC[C@H]1O[C@@H](n2ccc(N)nc2=O)[C@H](O)[C@@H]1O [CDP-choline, cytidine-diphosphocholine]
time of breakdown to cytidine and choline ([1]; intravenous injection): ≤ 30 s | intact compound in circulation ([1]; oral): no intact CDP-choline enters the circulation | plasma cytidine and choline concentrations ([1]; oral): rise | degradation following administration ([1]; yielding cytidine, choline, and phosphate): very rapidly degraded | therapeutic efficacy [2]: Therapeutic efficacy has been documented

plasma level of uridine vs equal molar dose of uridine [4]: substantially higher | plasma uridine level [4]: exceeded 10 micromolar | time uridine levels sustained in the useful therapeutic range [4]: at least four
Compound: CC(=O)OC[C@H]1O[C@@H](n2ccc(=O)[nH]c2=O)[C@H](OC(C)=O)[C@@H]1OC(C)=O [TAU, 2',3',5'-tri-O-acetyl uridine]
plasma levels of uridine vs equimolar dose of uridine [3]: significantly higher for at least four hours

Compound: O=c1ccn([C@@H]2O[C@H](COP(=O)([O-])[O-])[C@@H](O)[C@H]2O)c(=O)[nH]1.[Na+].[Na+] [UMP, Sodium uridine monophosphate]
mortality and myocardial function [5]: reduced mortality and improved myocardial function | prophylactic effect vs potassium orotate ([5]; in vivo): more pronounced prophylactic effect | resistance to adrenalin-induced myocardial necrosis ([5]; in vivo): increase the animal's resistance

Compound: Nc1ncnc2c1ncn2[C@@H]1O[C@H](CO)[C@@H](O)[C@H]1O [adenosine]
inotropic effect (isolated dog heart): negatively inotropic

Compound: Nc1ccn([C@@H]2O[C@H](CO)[C@@H](O)[C@H]2O)c(=O)n1 [cytidine]
myocardial cytosine nucleotide levels (isolated rat heart; 30 minute supply of cytidine): significantly increased | conversion of cytidine taken up into uridine nucleotides (isolated rat heart): Very little | inotropic effect (isolated dog heart): negatively inotropic | brain uptake (brain): not very readily taken up by the brain | specific activity of liver homogenates [6]: increased | muscular concentrations of Krebs cycle intermediates (skeletal muscles): affect the muscular concentrations of Krebs cycle intermediates

Compound: O=C[C@H](O)[C@@H](O)[C@H](O)[C@H](O)CO [glucose]
contractability and extensibility of atrial tissue (atrial tissue): restored

Compound: Nc1nc2c(ncn2[C@@H]2O[C@H](CO)[C@@H](O)[C@H]2O)c(=O)[nH]1 [guanosine]
inotropic effect (isolated dog heart): positive inotropic

Compound: C[C@]12CCC(=O)C=C1CC[C@@H]1[C@@H]2[C@@H](O)C[C@@]2(C)[C@H]1CC[C@]2(O)C(=O)CO [hydrocortisone]
tyrosine-alpha-ketoglutarate activity [7]: increase

Compound: OC[C@H]1O[C@@H](n2cnc3c(O)ncnc32)[C@H](O)[C@@H]1O [inosine]
inotropic effect (isolated dog heart): positive inotropic | lipolysis (adipose tissue): inhibited lipolysis | glucose uptake [8]: stimulate glucose uptake

Compound: CC(C)NCC(O)c1ccc(O)c(O)c1 (stereo not shown) [isoproterenol]
cardiac glycogen stores, myocardial UTP and UDP-glucose levels (myocardial glycogen; isoproterenol): depleted cardiac glycogen stores and reduced myocardial UTP and UDP-glucose levels

Compound: O=C([O-])c1cc(=O)[nH]c(=O)[nH]1.[K+] [potassium orotate]
mortality and myocardial function [5]: reduced mortality and improved myocardial function | resistance to adrenalin-induced myocardial necrosis ([5]; in vivo): increase the animal's resistance

Compound: O=C[C@H](O)[C@H](O)[C@H](O)CO [ribose]
myocardial glycogen (myocardial glycogen): restoration of myocardial glycogen

Compound: Cc1cn([C@H]2C[C@H](O)[C@@H](CO)O2)c(=O)[nH]c1=O [thymidine]
inotropic effect (isolated dog heart): positive inotropic

Compound: O=c1ccn([C@@H]2O[C@H](COP(=O)(O)OP(=O)(O)O)[C@@H](O)[C@H]2O)c(=O)[nH]1 [uridine diphosphate]
improvement of liver function (liver function): improve certain aspects of liver function

Compound: O=c1ccn([C@@H]2O[C@H](COP(=O)(O)O)[C@@H](O)[C@H]2O)c(=O)[nH]1 [uridine-5'-monophosphate]
protective effect in adrenalin-induced myocardial dystrophy [9]: protective effect

Compound: O=C(O)[C@H]1O[C@H](OP(=O)(O)OP(=O)(O)OC[C@H]2O[C@@H](n3ccc(=O)[nH]c3=O)[C@H](O)[C@@H]2O)[C@H](O)[C@@H](O)[C@@H]1O [uridine-diphosphoglucuronic acid]
improvement of liver function (liver function): improve certain aspects of liver function

Compound: O=c1ccn([C@@H]2O[C@H](CO)[C@@H](O)[C@H]2O)c(=O)[nH]1 [uridine]
protective effect in adrenalin-induced myocardial dystrophy [9]: relatively ineffective | glucose uptake and glycogen synthesis [10]: enhance glucose uptake and glycogen synthesis | incorporation of glucose into glycogen (hepatocytes): increase | tissue uridine nucleotide pools (hepatocytes): expanded | degradation of infused uridine [11]: more than 90% | myocardial ATP levels, total adenine nucleotide content, uridine nucleotide levels, glycogen content (isolated rat hearts [12]): induced restoration | supporting myocardial hyperfunction (heart; in vivo): relatively ineffective | myocardial heart-pathology benefit of uridine in intact animals (heart; intact (alive and free-running) animals): no beneficial effect | difference from controls in rats developing hypertrophy of the heart (heart; rat, in vivo): no difference | plasma levels of uridine ([13]; mouse, in vivo, po, 350 mg/kg): not perturbed | elevation of plasma uridine levels ([13]; mouse, in vivo, po, 3500 mg/kg): observed only after oral administration of high doses | time to return of plasma uracil to normal ([13]; oral uridine, 350 mg/kg): 4 h | decrease in maximal pressure upon aortic ligation (myocardium): prevented | myocardial performance, glucose uptake, glycolysis, glycogen and adenine nucleotides (isolated rabbit hearts; hypoxic hearts): increased myocardial performance, glucose uptake and glycolysis and also diminished the disappearance of glycogen and adenine nucleotides | glucose uptake, glycolysis, ATP and glycogen levels, myocardial performance (isolated rabbit hearts; propranolol-treated hearts): increased glucose uptake, glycolysis, levels of ATP and glycogen, as well as myocardial performance | contractability and extensibility of atrial tissue (atrial tissue): restored | myocardial glycogen (myocardial glycogen): restoration of myocardial glycogen | inotropic effect (isolated dog heart): positive inotropic | plasma uridine level [4]: exceeded 10 micromolar | lipolysis (adipose tissue): inhibited lipolysis | glucose uptake [8]: stimulate glucose uptake | glycogen synthesis [8]: only uridine increased glycogen synthesis | rate of incorporation of uridine (isolated rat hearts [14]; following low-flow ischemia): increased twofold | myocardial uracil nucleotide content (isolated rat hearts [14]; perfusion): concentration-dependent elevation | anticonvulsant effect [15]: strong protection
